Like-named read-outs stand apart in the source and are kept apart here.
Columns and labels:
[1] = Feeding trial in rumen-fistulated dairy cows: ZEN and ZEN metabolites in rumen fluid from reticulum, dorsal mat layer and ventral sac; type: in vivo, Holstein Friesian cows; settings: for Traces still detected at (time after administration of ZEN-contaminated concentrate): time point 0 h of the ZEN+ZenA treatment; for Percentage of concentration relative to the sum of ZEN and ZEN metabolite concentrations: reticulorumen; for Time to elimination: ventral sac and reticulum; for Tmax: female, Holstein Friesian, bovine, in vivo, po, 5 mg, read-out: Time of peak concentration post-administration (converted)
Excerpt: (§1) Ruminal metabolism of ZEN with and without supplementation of ZenA was investigated in four rumen-fistulated Holstein Friesian cows (sex: female; age at start: 5.9 ± 1.0 years; body weight at start: 863 ± 65 kg; physiological stage: non-lactating; general health: good, non-gestating; identification procedure: ear tag 4-digit code). The cows were part of the dairy herd of VetFarm (Teaching and Research Farm) of the University of Veterinary Medicine Vienna in Kremesberg, Austria. All procedures related to these experiments were performed according to Austrian law and following the European Guidelines for the Care and Use of Animals for Research Purpose. The animal experiment was approved by ethics and animal welfare commission of the University of Veterinary Medicine, Vienna and the Austrian Federal Ministry of Education, Science and Research (68.205/0156-WF/V/3b/2017, 30.08.2017).
(§2) In our trial setup, each animal was considered an experimental unit (n = 4). Each animal received the same treatment and served as its own control. First, each animal received ZEN-contaminated concentrate feed. Following a 48-h washout period, each animal received ZEN-contaminated concentrate feed supplemented with ZenA. In brief, for acclimatization, on the day prior to the start of the feeding trial, each animal was manually fed 4 × 500 g of control concentrate (Table 4 and Table 5). Thereafter, animals were manually fed (i) 1 × 500 g concentrate contaminated with ZEN and 3 × 500 g control concentrate on experimental day 1 (ZEN treatment), (ii) 4 × 500 g control concentrate on day 2 (ZEN washout), (iii) 1 × 500 g ZEN-contaminated concentrate supplemented with ZenA and 3 × 500 g control concentrate on day 3 (ZEN+ZenA treatment), and (iv) 4 × 500 g control concentrate on day 4 (ZEN+ZenA washout; Table 6). Animals were treated and assessed in the same random order at each experimental time point.
For production of ZEN-contaminated concentrate feed, lyophilizate of ZEN with maltodextrin as a carrier was prepared. To this end, in three parallel preparations, 50 mg ZEN (Fermentek, Jerusalem, Israel) was dissolved in 1 L RO water (pH 12; adjusted with NaOH) using a magnetic stirrer set to 400 rpm and 37 °C for 20 min. Subsequently, 100 g maltodextrin DE19 (Agrana, Vienna, Austria) was added and dissolved by stirring (400 rpm) at room temperature for 10 min. The solution was lyophilized. Lyophilizate was mixed into concentrate feed at an inclusion rate of 2%. The final concentration of ZEN in feed was aimed to be 10 mg/kg and was verified using HPLC-MS/MS analysis as described below. For production of ZEN-contaminated, ZenA-supplemented concentrate, a zearalenone hydrolase ZenA preparation (ZENzyme®; EC 3.1.1.-; BIOMIN Holding GmbH, Getzersdorf, Austria) was mixed into ZEN-contaminated concentrate to achieve an activity of 128 U/kg feed. Same as in the in vitro trial, 1 U of ZenA was defined as the enzyme activity that hydrolyzes 1 μmol ZEN per minute from 15.71 µM ZEN in Teorell Stenhagen buffer adjusted to pH 7.5 containing 0.1 mg/mL bovine serum albumin at 37 °C.
On days 1 and 3 of the trial (ZEN and ZEN+ZenA treatment, respectively), ruminal digesta samples were taken from reticulum, ventral sac and dorsal mat layer (Figure 3) immediately before concentrate feeding (0 h), as well as 15 min, 1 h, 2 h, 4 h, 7 h and 10 h after concentrate feeding (Table 6). On days 2 and 4 of the trial (washout days), ruminal digesta samples were taken immediately before first concentrate feeding (0 h), as well as 10 h after first concentrate feeding (Table 6). Ruminal digesta samples (10 mL) were taken via a rumen fistula from reticulum and ventral sac (10 cm above the bottom of the rumen) using a pump as described previously. Samples were taken from the dorsal mat layer 20 cm below the gas phase and rumen fluid was obtained by manually squeezing the samples as described previously. Samples were mixed 1:2 with acetonitrile by vortexing. […]

estrogen receptors = system: estrogen receptors; parameters: method as in doi:10.2903/j.efsa.2016.4425; settings: cited from earlier work
[2] = Feeding trial in rumen-fistulated dairy cows: ZEN and ZEN metabolites in feces; type: in vivo, Holstein Friesian cows; settings: feces
Excerpt: as §1, §2
On days 1 and 3 of the experiment, feces samples were taken from the rectum immediately before concentrate feeding (0 h), as well as 10 h after concentrate feeding (Table 6) and stored at −20 °C. Aliquots (500 mg) of thoroughly homogenized feces samples were extracted for HPLC-MS/MS analysis according to the method described by Binder and coworkers.
HPLC-MS/MS analysis of ZEN, α-ZEL, β-ZEL, HZEN and DHZEN in rumen fluid and feces was performed as described for the in vitro rumen fermentation experiment (see section “In Vitro Rumen Fermentation Experiment”, subsection “Analysis of ZEN and its Metabolites”), with the following modifications. Chromatographic separation was performed with a flow rate of 0.6 mL/min, a duration of 4 min and an injection volume was 1 µL. The gradient started at 30% B which was held for 0.3 min. Subsequently, the proportion of B was increased to 80% from 0.3 to 2 min, and increased to 100% from 2 to 2.1 min. […] LODs for ZEN, α-ZEL, β-ZEL, HZEN and DHZEN in rumen fluid were 2.83 nmol/L (0.9 µg/L), 2.81 nmol/L (0.9 µg/L), 2.81 nmol/L (0.9 µg/L), 2.68 nmol/L (0.9 µg/L) and 10.27 nmol/L (3 µg/L), respectively. LOQs for ZEN, α-ZEL, β-ZEL, HZEN and DHZEN in rumen fluid were 9.43 nmol/L (3 µg/L), 9.37 nmol/L (3 µg/L), 9.37 nmol/L (3 µg/L), 8.93 nmol/L (3 µg/L) and 30.81 nmol/L (9 µg/L), respectively. LODs for ZEN, α-ZEL, β-ZEL, HZEN and DHZEN in feces were 0.03 nmol/g (8.4 ng/g), 0.03 nmol/g (8.4 ng/g), 0.03 nmol/g (8.4 ng/g), 0.03 nmol/g (8.4 ng/g) and 0.10 nmol/g (28 ng/g), respectively. LOQs for ZEN, α-ZEL, β-ZEL, HZEN and DHZEN in feces were 0.09 nmol/g (28 ng/g), 0.09 nmol/g (28 ng/g), 0.09 nmol/g (28 ng/g), 0.08 nmol/g (28 ng/g) and 0.29 nmol/g (84 ng/g), respectively.

[3] = dorsal mat layer, ZEN treatment
[4] = ZEN treatment, 15 min after feeding, from median of 3 locations
[5] = reticulum and ventral sac, ZEN treatment
[6] = ZEN+ZenA treatment, 0 h (48 h after ZEN treatment)

| Structure (SMILES) | Low concentrations still detected at (time after concentrate feeding) [1, 3] [h] | Traces still detected at (time after administration of ZEN-contaminated concentrate) ([1]; dorsal mat layer) [h] | Percentage of concentration relative to the sum of ZEN and ZEN metabolite concentrations [1, 4] | Percentage of concentration relative to the sum of ZEN and ZEN metabolite concentrations ([1]; ZEN treatment, 1 h) [%] | Percentage of concentration relative to the sum of ZEN and ZEN metabolite concentrations ([1]; ZEN treatment, 4 h) | Percentage of concentration relative to the sum of ZEN and ZEN metabolite concentrations ([1]; ZEN treatment, 7 h) | Percentage of concentration relative to the sum of ZEN and ZEN metabolite concentrations ([1]; ZEN treatment, 10 h) [%] | Percentage of concentration relative to the sum of ZEN and ZEN metabolite concentrations ([1]; ZEN treatment, 24 h) [%] | Percentage of concentration relative to the sum of ZEN and ZEN metabolite concentrations ([1]; ZEN+ZenA treatment, 15 min) | Percentage of concentration relative to the sum of ZEN and ZEN metabolite concentrations ([1]; ZEN+ZenA treatment, 1 h) | Percentage of concentration relative to the sum of ZEN and ZEN metabolite concentrations ([1]; ZEN+ZenA treatment, 4 h) | Percentage of concentration relative to the sum of ZEN and ZEN metabolite concentrations ([1]; ZEN+ZenA treatment, 7 h) | Percentage of concentration relative to the sum of ZEN and ZEN metabolite concentrations ([1]; ZEN+ZenA treatment, 10 h) | Detected up until (time after concentrate feeding) [1, 5] [h] | Time to elimination ([1]; ZEN treatment) [h] | Estrogenic potency relative to ZEN (estrogen receptors) [times] | Percentage of concentration relative to the sum of ZEN and ZEN metabolite concentrations ([2]; ZEN treatment, 10 h) [%] | Percentage of concentration relative to the sum of ZEN and ZEN metabolite concentrations [2, 6] [%] | Percentage of concentration relative to the sum of ZEN and ZEN metabolite concentrations ([2]; ZEN+ZenA treatment, 10 h) | further results |
| --- | --- | --- | --- | --- | --- | --- | --- | --- | --- | --- | --- | --- | --- | --- | --- | --- | --- | --- | --- | --- |
| C[C@H]1CCC[C@H](O)CCC/C=C/c2cc(O)cc(O)c2C(=O)O1 [α-ZEL, α-zearalenol] | 34 | 48 | 0.0 (traces) % | 7.6 | 15.9% | 21.3% | 25.6 | 49.8 | 0.0 (traces) % | 0.0% | 0.0% | 0.0% | 0.0 (traces) % | 24 | ≤ 34 | 60 | 10.9 | 15.5 | 9.0% | First detected (time after concentrate feeding) [1, 3]: 1 h; First detected (time after concentrate feeding) [1, 5]: 0.25 h; Detection in rumen fluid ([1]; ventral sac, ZEN+ZenA treatment): not detected |
| C[C@H]1CCC[C@@H](O)CCC/C=C/c2cc(O)cc(O)c2C(=O)O1 [β-ZEL, β-zearalenol] | – | – | 0.0 (traces) % | 7.6 | 0.0 (traces) % | 0.0 (traces) % | 0.0 | 0.0 | 0.0% | 0.0% | 0.0% | 0.0% | 0.0% | – | ≤ 34 | 0.2 | 78.1 | 69.0 | 59.1% | Detection in rumen fluid ([1]; any reticulorumen location, ZEN+ZenA treatment): not detected; Period of detection at low concentrations [1, 3]: 1 to 7 h; Time of detection at low concentrations ([1]; ventral sac, ZEN treatment): 1 h |
| C[C@H]1CCCC(=O)CCC/C=C/c2cc(O)cc(O)c2C(=O)O1 [ZEN, zearalenone] | 34 | 48 | 100.0% | 84.8 | 84.1% | 78.7% | 74.4 | 50.2 | 5.9% | 0.0 (traces) % | 0.0 (traces) % | 0.0 (traces) % | 0.0 (traces) % | 24 | ≤ 34 | – | 11.0 | 15.6 | 0.0 (traces) % | Tmax [1, 3]: 1 h; Tmax ([1]; reticulum, ZEN treatment (5 mg ZEN oral)): 0.25 h; Tmax ([1]; ventral sac, ZEN treatment): 1 h |

From publication PMC7911295, “Metabolism of Zearalenone in the Rumen of Dairy Cows with and without Application of a Zearalenone-Degrading Enzyme” (Toxins, 2021)
